Tested on: p-IRS-1 and p-PI3K/Akt/GSK3β (Ser 9) pathways
Experiment: Insulin resistance and downstream insulin signaling in APPswe/ind-overexpressing SH-SY5Y cells, immunoblot
Assay type: cell-based, human
Settings: APPswe/ind SH-SY5YIR, Comp. C 10 μM with Os-pep 10 μM
Method: Human neuroblastoma SH-SY5Y cells were seeded (in 6-well culture plates for immunoblotting and in chamber slides for immunofluorescence) in DMEM (Dulbecco’s modified Eagle medium) containing 10% fetal bovine serum (FBS) and 1% antibiotics (penicillin-streptomycin) and incubated at 37 °C in humidified air containing 5% CO2. Once the cells reached 70–80% confluence, the cells were transfected using the pCAX vector containing the APPswe/ind gene using Lipofectamine 3000 (Life Technologies) according to the provider’s protocols. AdipoR1 siRNA (h) (SC-60123) and AMPK siRNA (h) (SC-45312) (Santa Cruz Biotechnology, Inc.) were used at a concentration of 10 μM per transfection and expressed for 72 h according to the manufacturer’s protocol (Santa Cruz Biotechnology, Inc.). A negative siRNA (Ambion, Thermo Fisher Scientific) was used as a control. Seventy-two hours after the transfections, the cells were exposed to Os-pep (10 μM) for 12 h and then subjected to immunoblotting and immunofluorescence analyses.
Human neuroblastoma SH-SY5Y cells were treated with 1 µM of insulin for 48 h to produce intrinsic insulin-resistant human neuroblastoma (SH-SY5YIR) cells. After 48 h, SH-SY5YIR cells were overexpressed with human APPswe/ind and subjected with AdipoR1 siRNA which further exposed to 10 nM insulin, Os-pep (10 µM) or compound C (10 µM) for 12 h, and then cell lysates were collected and proceeded accordingly for immunoblotting and ELISA.

c1cc(-c2cnn3cc(-c4ccc(OCCN5CCCCC5)cc4)cnc23)ccn1 [Comp. C, reference compound]
effect on insulin-sensitizing effect of Os-pep: inhibited the insulin-sensitizing effect of Os-pep

— article PMC8042910, “Adiponectin-mimetic novel nonapeptide rescues aberrant neuronal metabolic-associated memory deficits in Alzheimer’s disease” (Molecular Neurodegeneration, 2021)
